Experimental data reported in patent US8598154B2 (Corcept Therapeutics, Inc., priority 2010, dated 2013).
pKi: −log10 of the molar value.

Experiments:
[1] = target: T1, Human Recombinant Glucocorticoid Receptor (Homo sapiens, UniProt P04150); experiment: Glucocorticoid receptor binding displacement assay with 3H-dexamethasone; conditions: displacement of 2.5 nM 3H-dexamethasone; Ki from IC50 by Cheng-Prusoff; read-out: GR Binding Ki
T1 construct: This GR was a full-length steroid hormone receptor likely to be associated with heat-shock and other endogenous proteins; host or cells: baculovirus-infected insect cells
T1 sequence (P04150 1-777): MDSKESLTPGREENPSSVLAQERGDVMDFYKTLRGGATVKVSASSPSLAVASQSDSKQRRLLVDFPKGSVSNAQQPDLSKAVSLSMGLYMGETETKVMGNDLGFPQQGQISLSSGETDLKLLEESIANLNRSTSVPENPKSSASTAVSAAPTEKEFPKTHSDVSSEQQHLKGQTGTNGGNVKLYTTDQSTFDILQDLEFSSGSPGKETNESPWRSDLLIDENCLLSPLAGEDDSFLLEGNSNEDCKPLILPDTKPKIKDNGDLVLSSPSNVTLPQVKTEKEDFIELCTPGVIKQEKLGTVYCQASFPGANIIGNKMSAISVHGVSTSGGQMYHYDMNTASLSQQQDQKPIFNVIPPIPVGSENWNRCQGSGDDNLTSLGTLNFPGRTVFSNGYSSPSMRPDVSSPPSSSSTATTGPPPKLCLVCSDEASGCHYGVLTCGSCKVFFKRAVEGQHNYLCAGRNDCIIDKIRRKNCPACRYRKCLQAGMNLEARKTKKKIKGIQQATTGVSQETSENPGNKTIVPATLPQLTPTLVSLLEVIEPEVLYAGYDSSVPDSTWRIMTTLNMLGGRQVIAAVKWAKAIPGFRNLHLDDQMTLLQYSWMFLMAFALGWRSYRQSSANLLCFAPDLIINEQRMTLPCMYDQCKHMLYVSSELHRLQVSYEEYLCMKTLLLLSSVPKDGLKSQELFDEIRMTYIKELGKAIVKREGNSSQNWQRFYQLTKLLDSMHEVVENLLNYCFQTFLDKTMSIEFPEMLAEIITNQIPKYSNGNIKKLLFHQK
Experimental: The source of the receptor was recombinant baculovirus-infected insect cells. This GR was a full-length steroid hormone receptor likely to be associated with heat-shock and other endogenous proteins.
For the Primary Screen, test compounds were tested at 1 μM in duplicate. These compounds were diluted from 10 mM stock in 100% DMSO. After dilution to 100 μM, 5 μl were added to 245 μl assay buffer to obtained 2 μM compound and 2% DMSO.
For the IC50 determinations, test compounds were tested at 6 concentrations in duplicate (concentration range depends on % inhibition binding that was obtained in the Primary Screen). Test compounds were diluted from 10 mM stock in 100% DMSO. The tested solutions were prepared at 2× final assay concentration in 2% DMSO/assay buffer.
All reagents and the assay plate were kept on ice during the addition of reagents. […] After the additions, the incubation mixture was mixed and incubated for 2.5 hrs at 4° C.
After 2.5 hrs incubation, unbound counts were removed with dextran coated charcoal (DCC) as follows: 25 μl of DCC solution (10% DCC in assay buffer) was added to all wells and mixed (total volume 225 μl). The plate was centrifuged at 4000 rpm for 10 minutes at 4° C. 75 μl of the supernatants (i.e.⅓ of total volume) was carefully pipetted into an optiplate. 200 μl of scintillation cocktail were added (Microscint-40, Packard Bioscience. B.V.). The plate was vigorously shaken for approx. 10 minutes and counted on Topcount.
The IC50 values were converted to Ki (the inhibition constant) using the Cheng-Prusoff equation. Test results are presented in Tablel.
Reagents: Assay buffer: 10 mM potassium phosphate buffer pH 7.6 containing 5 mM DTT, 10 mM sodium molybdate, 100 μM EDTA and 0.1% BSA.

[2] = target: T2, glucocorticoid receptors (GR) in SW1353/MMTV-5 cells (Homo sapiens, UniProt P04150); experiment: GR functional assay using SW1353/MMTV-5 cells (MMTV-luciferase reporter); type: cell-based
T2 construct: contains endogenous glucocorticoid receptors; endogenous in cells; host or cells: SW1353/MMTV-5 (human chondrosarcoma, stably transfected with the pMAMneo-Luc reporter only)
T2 sequence (P04150 1-777): T1 sequence (P04150 1-777)
Experimental: SW1353/MMTV-5 is an adherent human chondrosarcoma cell line that contains endogenous glucocorticoid receptors. It was transfected with a plasmid (pMAMneo-Luc) encoding firefly luciferase located behind a glucocorticoid-responsive element (GRE) derived from a viral promoter (long terminal repeat of mouse mammary tumor virus). A stable cell line SW1353/MMTV-5 was selected with geneticin, which was required to maintain this plasmid.
SW1353/MMTV-5 cells were distributed in 96-well plates and incubated in medium (without geneticin) for 24 hrs (in the absence of CO2).

Compound	pKi [1]	pKi [2]
CN(C)CCOC(=O)[C@]12Cc3cnn(-c4ccc(F)cc4)c3C=C1CCN(S(=O)(=O)c1ccc(N3CCOCC3)nc1)C2 [Example 56, (R)-1-(4-Fluorophenyl)-6-(6-morpholin-4-yl-pyridine-3-sulfonyl]-1,4,5,6,7,8-hexahydro-1,2,6-triaza-cyclopenta[b]naphthalene-4a-carboxylic acid 2-dimethylaminoethyl ester]	< 9.00	< 7.30
COC[C@]12Cc3cnn(-c4ccc(F)cc4)c3C=C1CCN(S(=O)(=O)c1ccc(N3CCNCC3)nc1)C2 [Example 18, (R)-1-(4-Fluorophenyl)-4a-methoxymethyl-6-[[6-(1-piperazinyl)-3-pyridinyl]sulfonyl]-1,4,7,8-tetrahydro-1,2,6-triazacyclopenta[b]naphthalene]	< 9.00	< 7.30
COC[C@]12Cc3cnn(-c4ccc(F)cc4)c3C=C1CCN(S(=O)(=O)c1cncc(N3CCC3)c1)C2 [Example 13, (R)-6-(5-Azetidin-1-ylpyridine-3-sulfonyl)-1-(4-fluorophenyl)-4a-methoxymethyl-4,4a,5,6,7,8-hexahydro-1H-1,2,6-triazacyclopenta[b]naphthalene]	> 9.30	7.30 to 8.00
COC[C@]12Cc3cnn(-c4ccc(F)cc4)c3C=C1CCN(S(=O)(=O)c1ccc(N3CCOCC3)nc1)C2 [Example 14, (R)-1-(4-Fluorophenyl)-4a-methoxymethyl-6-(6-morpholin-4-yl-pyridine-3-sulfonyl)-4,4a,5,6,7,8-hexahydro-1H-1,2,6-triazacyclopenta[b]naphthalene]	9.00 to 9.30	7.30 to 8.00
CC1(COC(=O)[C@]23Cc4cnn(-c5ccc(F)cc5)c4C=C2CCN(S(=O)(=O)c2ccc(N4CCOCC4)nc2)C3)COC1 [Example 54, (R)-1-(4-Fluorophenyl)-6-(6-morpholin-4-yl-pyridine-3-sulfonyl]-1,4,5,6,7,8-hexahydro-1,2,6-triaza-cyclopenta[b]naphthalene-4a-carboxylic acid 3-methyloxetan-3-ylmethyl ester]	< 9.00	< 7.30
COC[C@]12Cc3cnn(-c4ccc(F)cc4)c3C=C1CCN(S(=O)(=O)c1cncc(N3CC[C@@H](O)C3)c1)C2 [Example 38, (R)-1-{5-[(R)-1-(4-Fluorophenyl)-4a-methoxymethyl-1,4,4a,5,6,7,8-hexahydro-1,2,6-triaza-cyclopenta[b]naphthalene-6-sulfonyl]pyridine-3-yl}-pyrrolidine-3-ol]	9.00 to 9.30	7.30 to 8.00
O=C(OCC1CC(O)C1)[C@]12Cc3cnn(-c4ccc(F)cc4)c3C=C1CCN(S(=O)(=O)c1ccc(N3CCOCC3)nc1)C2 (stereo partly drawn) [Example 53, (R)-1-(4-Fluorophenyl)-6-(6-morpholin-4-yl-pyridine-3-sulfonyl]-1,4,5,6,7,8-hexahydro-1,2,6-triaza-cyclopenta[b]naphthalene-4a-carboxylic acid 3-hydroxycyclobutylmethyl ester]	< 9.00	7.30 to 8.00
O=S(=O)(c1ccc(N2CC[C@@H](O)C2)nc1)N1CCC2=Cc3c(cnn3-c3ccc(F)cc3)C[C@]2(COCC2CC2)C1 [Example 28, (R)-1-{5-[(R)-4a-Cyclopropylmethoxymethyl-1-(4-fluorophenyl)-1,4,4a,5,6,7,8-hexahydro-1,2,6-triaza-cyclopenta[b]naphthalene-6-sulfonyl]pyridine-2-yl}-pyrrolidine-3-ol]	> 9.30	7.30 to 8.00
COC[C@]12Cc3cnn(-c4ccc(F)cc4)c3C=C1CCN(S(=O)(=O)c1ccc(N3CCN(C)CC3)nc1)C2 [Example 19, (R)-1-(4-Fluorophenyl)-4a-methoxymethyl-6-[[6-(1-(4-methylpiperazinyl))-3-pyridinyl]sulfonyl]-1,4,7,8-tetrahydro-1,2,6-triazacyclopenta[b]naphthalene]	< 9.00	< 7.30
O=C(OCCO)[C@]12Cc3cnn(-c4ccc(F)cc4)c3C=C1CCN(S(=O)(=O)c1ccc(N3CCOCC3)nc1)C2 [Example 55, (R)-1-(4-Fluorophenyl)-6-(6-morpholin-4-yl-pyridine-3-sulfonyl]-1,4,5,6,7,8-hexahydro-1,2,6-triaza-cyclopenta[b]naphthalene-4a-carboxylic acid 2-hydroxethyl ester]	< 9.00	< 7.30
COC[C@]12Cc3cnn(-c4ccc(F)cc4)c3C=C1CCN(S(=O)(=O)c1ccc(N3CCCC3)nc1)C2 [Example 5, (R)-1-(4-Fluorophenyl)-4a-methoxymethyl-6-[[6-(1-pyrrolidinyl)-3-pyridinyl]sulfonyl]-1,4,7,8-tetrahydro-1,2,6-triazacyclopenta[b]naphthalene]	9.00 to 9.30	7.30 to 8.00
CN(CCO)C[C@]12Cc3cnn(-c4ccc(F)cc4)c3C=C1CCN(S(=O)(=O)c1ccc(N3CCOCC3)nc1)C2 [Example 45, 2-{[(S)-1-(4-Fluorophenyl)-6-[6-morpholin-4-yl-pyridine-3-sulfonyl)-1,4,5,6,7,8-hexahydro-1,2,6-triaza-cyclopenta[b]naphthalene-4a-ylmethyl]-methyl-amino}-ethanol]	< 9.00	7.30 to 8.00
O=S(=O)(c1ccc(N2CCOCC2)nc1)N1CCC2=Cc3c(cnn3-c3ccc(F)cc3)C[C@]2(CN2CC[C@@H](O)C2)C1 [Example 63, (R)-1-[(S)-1-(4-Fluorophenyl)-6-[6-morpholin-4-yl-pyridine-3-sulfonyl)-1,4,5,6,7,8-hexahydro-1,2,6-triaza-cyclopenta[b]naphthalene-4a-ylmethyl]-pyrrolidin-3-ol]	< 9.00	7.30 to 8.00
O=C(OCC1CC(O)C1)[C@]12Cc3cnn(-c4ccc(F)cc4)c3C=C1CCN(S(=O)(=O)c1ccc(N3CC[C@@H](F)C3)nc1)C2 (stereo partly drawn) [Example 61, (R)-1-(4-Fluorophenyl)-6-[6-((R)-3-fluoropyrrolidin-1-yl)-pyridine-3-sulfonyl]-1,4,5,6,7,8-hexahydro-1,2,6-triaza-cyclopenta[b]naphthalene-4a-carboxylic acid 3-hydroxy cyclobutylmethyl ester]	< 9.00	7.30 to 8.00
CCOC[C@]12Cc3cnn(-c4ccc(F)cc4)c3C=C1CCN(S(=O)(=O)c1ccc(NC)nc1)C2 [Example 7, (R)-4a-Ethoxymethyl-1-(4-fluorophenyl)-6-[[6-methylamino-3-pyridinyl]sulfonyl]-1,4,7,8-tetrahydro-1,2,6-triazacyclopenta[b]naphthalene]	> 9.30	7.30 to 8.00
COCCOC[C@]12Cc3cnn(-c4ccc(F)cc4)c3C=C1CCN(S(=O)(=O)c1ccc(N3CCOCC3)nc1)C2 [Example 64, (R)-1-(4-Fluoro-phenyl)-4a-(2-methoxy-ethoxymethyl)-6-(6-morpholin-4-yl-pyridine-3-sulfonyl)-4,4a,5,6,7,8-hexahydro-1H-1,2,6-traza-cyclopenta[b]naphthalene]	9.00 to 9.30	> 8.00
O=S(=O)(c1ccc(N2CC[C@@H](O)C2)nc1)N1CCC2=Cc3c(cnn3-c3ccc(F)cc3)C[C@]2(CN2CC[C@H](O)C2)C1 [Example 46, (S)-1-{(S)-1-(4-Fluorophenyl)-6-[6-((R)-3-hydroxy-pyrrolidin-3-ol)-pyridine-3-sulfonyl]-1,4,5,6,7,8-hexahydro-1,2,6-triaza-cyclopenta[b]naphthalene-4a-ylmethyl}-pyrrolidin-3-ol]	< 9.00	–
